In ChEMBL document CHEMBL4819076, “An affinity prediction approach for the ligand of E3 ligase Cbl-b and an insight into substrate binding pattern” (Bioorg Med Chem, 2021) one finds IC50 and Kd data, which are given here for 16 compounds.

For orientation: IC50 means the midpoint of a concentration-inhibition curve. The term Kd denotes the equilibrium constant for the complex coming apart.

Where a SMILES comes first, the peptide text is derived from it. [ ]: non-standard residue; d: D form. pY = N[C@@H](Cc1ccc(OP(=O)(O)O)cc1)C(=O)O

Experiment [1] has as its target T1, E3 ubiquitin-protein ligase CBL-B (Homo sapiens, UniProt Q13191). Kind of experiment: Binding affinity to recombinant His-tagged Cbl-b (unknown origin) (39 to 368 residues) expressed in Escherichia coli BL21 (DE3) using FITC-DGpYPEPA-NH2 as substrate incubated for 30 mins by fluorescence polarization assay. Background: Polarisation of emitted light reports the rotation of a fluorescent probe.

Experiment [2] deals with T1, E3 ubiquitin-protein ligase CBL-B. In words: Binding affinity to recombinant His-tagged Cbl-b (unknown origin) (39 to 368 residues) expressed in Escherichia coli BL21 (DE3) assessed as dissociation constant by bio-layer interferometry assay. On the technique in general: Biolayer interferometry detects binding as a change in optical thickness at a sensor tip.

T1 sequence (Q13191 whole entry, the tested form may be a part): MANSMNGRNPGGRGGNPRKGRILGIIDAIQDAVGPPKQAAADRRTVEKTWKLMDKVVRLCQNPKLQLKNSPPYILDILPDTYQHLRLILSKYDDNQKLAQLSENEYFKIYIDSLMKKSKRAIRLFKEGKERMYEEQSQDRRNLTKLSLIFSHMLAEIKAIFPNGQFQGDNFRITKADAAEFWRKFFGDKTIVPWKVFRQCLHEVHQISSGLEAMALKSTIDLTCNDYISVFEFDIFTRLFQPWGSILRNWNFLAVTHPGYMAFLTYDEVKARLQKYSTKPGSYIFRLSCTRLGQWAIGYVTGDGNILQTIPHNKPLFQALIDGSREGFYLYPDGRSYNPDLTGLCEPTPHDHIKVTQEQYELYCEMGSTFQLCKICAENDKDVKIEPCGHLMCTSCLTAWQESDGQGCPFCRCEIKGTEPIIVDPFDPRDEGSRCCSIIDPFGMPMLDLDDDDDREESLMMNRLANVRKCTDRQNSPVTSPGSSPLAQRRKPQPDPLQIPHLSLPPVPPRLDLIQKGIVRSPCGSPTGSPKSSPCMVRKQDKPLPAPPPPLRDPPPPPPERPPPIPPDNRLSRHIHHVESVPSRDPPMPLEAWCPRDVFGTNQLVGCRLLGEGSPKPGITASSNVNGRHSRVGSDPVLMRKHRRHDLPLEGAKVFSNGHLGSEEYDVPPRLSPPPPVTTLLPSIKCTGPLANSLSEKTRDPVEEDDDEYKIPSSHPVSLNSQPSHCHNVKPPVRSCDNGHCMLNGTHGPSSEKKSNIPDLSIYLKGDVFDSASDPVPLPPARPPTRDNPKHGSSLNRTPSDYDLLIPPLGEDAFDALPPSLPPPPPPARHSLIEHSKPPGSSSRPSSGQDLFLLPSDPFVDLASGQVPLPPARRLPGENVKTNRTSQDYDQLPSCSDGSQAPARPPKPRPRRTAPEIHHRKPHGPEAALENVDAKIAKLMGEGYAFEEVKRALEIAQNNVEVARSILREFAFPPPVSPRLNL

On to `C[C@@H](O)[C@H](NC(=O)[C@H](Cc1ccc(OP(=O)(O)O)cc1)NC(=O)CN)C(=O)N1CCC[C@H]1C(=O)N[C@@H](CCC(=O)O)C(=O)O` (H-G[pY]TPE-OH), for which the IC50 in experiment [1] is over 1000 µM.
As to `CC(=O)N[C@@H](CC(=O)O)C(=O)NCC(=O)N[C@@H](Cc1ccc(OP(=O)(O)O)cc1)C(=O)N[C@H](C(=O)N1CCC[C@H]1C(=O)N[C@@H](CCC(=O)O)C(=O)N1CCC[C@H]1C(=O)N[C@@H](C)C(N)=O)[C@@H](C)O` (Ac-DG[pY]TPEPA-NH2), the IC50 in experiment [1] was determined as 10.6 µM. Besides, the Kd in experiment [2] is 24.4 µM.
Take `CC(=O)N[C@@H](Cc1ccc(OP(=O)(O)O)cc1)C(=O)N[C@H](C(=O)N[C@@H](CC(C)C)C(=O)N[C@@H](CCC(=O)O)C(=O)N1CCC[C@H]1C(N)=O)[C@@H](C)O` (Ac-[pY]TLEP-NH2): the Kd in experiment [2] amounted to 29.8 µM.
As to `CC[C@H](C)[C@H](NC(=O)[C@@H](NC(=O)[C@H](Cc1ccc(OP(=O)(O)O)cc1)NC(C)=O)[C@@H](C)O)C(=O)N[C@@H](CCC(=O)O)C(=O)N1CCC[C@H]1C(N)=O` (Ac-[pY]TIEP-NH2), the Kd in experiment [2] amounted to 35.5 µM.
As for `CC(=O)N[C@@H](CC(C)C)C(=O)N[C@@H](CCC(N)=O)C(=O)N[C@@H](CCCNC(=N)N)C(=O)N[C@@H](Cc1ccc(OP(=O)(O)O)cc1)C(=O)N[C@@H](CO)C(=O)N[C@@H](CO)C(=O)N[C@@H](CC(=O)O)C(=O)N1CCC[C@H]1C(=O)N[C@H](C(=O)NCC(N)=O)[C@@H](C)O` (Ac-LQR[pY]SSDPTG-NH2), the Kd in experiment [2] amounted to 8.28 µM.
For `CC(=O)N[C@@H](Cc1ccc(OP(=O)(O)O)cc1)C(=O)N[C@H](C(=O)N1CCC[C@H]1C(=O)N[C@@H](CCC(=O)O)C(=O)N1CCC[C@H]1C(N)=O)[C@@H](C)O`, the IC50 in experiment [1] came to 7.84 µM. Moreover, the Kd in experiment [2] came out at 5.55 µM.
On to `CC(=O)N[C@@H](Cc1ccc(OP(=O)(O)O)cc1)C(=O)N[C@H](C(=O)N1CCC[C@H]1C(=O)N[C@@H](CCC(N)=O)C(=O)N1CCC[C@H]1C(N)=O)[C@@H](C)O` (Ac-[pY]TPQP-NH2), for which the Kd in experiment [2] was found to be 43.4 µM.
Take `CC(=O)NCC(=O)N[C@@H](Cc1ccc(OP(=O)(O)O)cc1)C(=O)N[C@H](C(=O)N1CCC[C@H]1C(=O)N[C@@H](CCC(=O)O)C(=O)N1CCC[C@H]1C(N)=O)[C@@H](C)O` (Ac-G[pY]TPEP-NH2): the IC50 in experiment [1] was found to be 11.3 µM. In addition, the Kd in experiment [2] amounted to 22.4 µM.
For the compound `CC(=O)N[C@@H](Cc1ccc(OP(=O)(O)O)cc1)C(=O)N[C@H](C(=O)N1CCC[C@H]1C(=O)N[C@@H](CC(=O)O)C(=O)N1CCC[C@H]1C(N)=O)[C@@H](C)O` (Ac-[pY]TPDP-NH2), in experiment [2], the Kd turned out to be 22.9 µM.
In the case of Ac-ETPEP-NH2, the IC50 in experiment [1] is over 1000 µM.
For the compound `CC(=O)N[C@@H](Cc1ccc(OP(=O)(O)O)cc1)C(=O)N[C@H](C(=O)N1CCC[C@H]1C(=O)N[C@@H](CCC(=O)O)C(N)=O)[C@@H](C)O` (Ac-[pY]TPE-NH2), in experiment [1], the IC50 was determined as 398 µM. Besides, the Kd in experiment [2] turned out to be 98.3 µM.
With `CC(=O)N[C@@H](CCCNC(=N)N)C(=O)N[C@@H](Cc1ccc(OP(=O)(O)O)cc1)C(=O)N[C@H](C(=O)N1CCC[C@H]1C(=O)N[C@@H](CCC(=O)O)C(=O)N1CCC[C@H]1C(N)=O)[C@@H](C)O` (Ac-R[pY]TPEP-NH2), the Kd in experiment [2] is 0.763 µM.
The same measure, in the same setting: in the case of `CC(=O)N[C@@H](Cc1ccc(OP(=O)(O)O)cc1)C(=O)N[C@H](C(=O)N1CCC[C@H]1C(=O)N[C@@H](CCC(=O)O)C(=O)N[C@@H](Cc1ccccc1)C(N)=O)[C@@H](C)O` (Ac-[pY]TPEF-NH2) it was 33.5 µM.
With `CC(=O)N[C@@H](Cc1ccc(OP(=O)(O)O)cc1)C(=O)N[C@H](C(=O)N[C@@H](C)C(=O)N[C@@H](CCC(=O)O)C(=O)N1CCC[C@H]1C(N)=O)[C@@H](C)O` (Ac-[pY]TAEP-NH2), the IC50 in experiment [1] came to 27.3 µM. In addition, the Kd in experiment [2] is 24.4 µM.
The matching figures for `CC(=O)N[C@@H](Cc1ccc(OP(=O)(O)O)cc1)C(=O)N[C@H](C(=O)N1CCC[C@H]1C(=O)N[C@@H](C)C(=O)N1CCC[C@H]1C(N)=O)[C@@H](C)O` (Ac-[pY]TPAP-NH2): 46.3 µM and 18.5 µM.
As for `CC(=O)N[C@@H](Cc1ccc(OP(=O)(O)O)cc1)C(=O)N[C@@H](C)C(=O)N1CCC[C@H]1C(=O)N[C@@H](CCC(=O)O)C(=O)N1CCC[C@H]1C(N)=O` (Ac-[pY]APEP-NH2), the IC50 in experiment [1] was found to be 104 µM. Further, in experiment [2], the Kd was found to be 57.1 µM.
